According to article PMC6930638, “The Masked Polar Group Incorporation (MPGI) Strategy in Drug Design: Effects of Nitrogen Substitutions on Combretastatin and Isocombretastatin Tubulin Inhibitors” (Molecules, 2019):
Values after ≈ are worked out from the molar mass of the structure shown. Where two headings read alike, the source gives them in different places.

Tests used:
[1] = Aqueous solubility determination (shake flask, UV); format: physicochemical; conditions: thermodynamic from solid, phosphate buffer pH 7.0, 48 h stirring, filtered, UV, read-out: Solub.
Experimental: One of the expected effects of introducing nitrogen substitutions on combretastatin and isocombretastatin analogues, is an increase in aqueous solubility. Solubility was spectrophotometrically determined in phosphate buffer at pH 7. UV absorbance of soluble compounds was measured after shaking and microfiltration. […] In addition, aqueous solubilities of the corresponding ammonium salts are over 1 mg/mL.
This great improvement is probably due to the symmetry reduction, combined with an increased polarity for 2g.
Compounds were stirred in a solution of phosphate buffer at pH 7.0 (1–2 mg of compound in 300 µL of buffer) during 48 h. After that, the samples were filtered over a […] filter to discard the insoluble residues. In order to determine the maximum wavelength of absorbance for each compound, a scan between 270 and 400 nm was performed. Once the wavelength was selected, a calibration line was performed and the concentration of the stirred and filtered samples was measured.

[2] = tested on: HeLa cervix epithelioid carcinoma; assay: MTT cell antiproliferative assay, HeLa; format: cell-based; conditions: Homo sapiens, 72 h
Experimental: (§1) The in vitro antiproliferative activity of the synthesized compounds was evaluated by a colorimetric reaction, using the MTT reagent. They were tested against three different human tumor cell lines: HeLa cervix epithelioid carcinoma, HT-29 colon adenocarcinoma, and MCF-7 breast adenocarcinoma. […] Moving the alkylamino substituent from a para to a meta position with respect to the bridge results in potency reduction, except for the phenstatin analogue 1f. However, the introduction of a nitrogen atom to form 2-dimethylaminopyridine derivatives entails a loss of activity, both for phenstatin analogues (1b, 2b), while for isocombretastatins, it only involves a 2–3 times potency decrease (3b). For combretastatins, it implies an improvement in the cytotoxicity values down to tenths of nanomolar (8b). […] On the other hand, the best 2-dimethylaminopyridine was combretastatin 8b. All ammonium salts derivatives were not cytotoxic at micromolar concentrations.
(§2) HeLa (human cervical carcinoma) and MCF-7 (human breast carcinoma) cell lines were cultured in Dulbecco’s Modified Eagles Medium (DMEM) supplemented with 2 mM L-glutamine (Lonza-Cambrex, Karlskoga, Sweden), 10% (v/v) heat inactivated fetal bovine serum (HIFBS) (Lonza-Cambrex) and 100 μg/mL streptomycin-100 IU/mL penicillin (Lonza-Cambrex) at 37 °C in humidified 95% air and 5% CO2. HT-29 (human colon carcinoma) cells were cultured at 37 °C in complete RPMI 1640 medium containing 2 mM L-glutamine, 10% (v/v) HIFBS and 100 μg/mL streptomycin-100 IU/mL penicillin in humidified 95% air and 5% CO2 atmosphere.
(§3) The effect of the different compounds on the proliferation of human cell lines was determined by using the MTT (3-[4,5-dimethylthiazol-2-yl]-2,5-diphenyltetrazolium bromide) reagent (MTT Thiazolyl Blue Tetrazolium Bromide, Sigma-Aldrich, St. Louis, MO, USA) dissolved in PBS 5 mg/mL. Cell viability was evaluated seeding 100 µL of cells in exponential growth phase with appropriate cell line concentration (1.5 × 10^4 HeLa and MCF-7 cells/mL and 3 × 10^4 HT-29 cells/mL) in complete medium in 96-well plates at 37 °C and 5% CO2. After 24 h incubation to allow cells to attach to the plates the ligands were added at different concentrations from 10^−5 to 10^−9 M. The effect on the proliferation was evaluated 72 h post-treatment by adding the MTT reagent (10 µL/well) to a final concentration of 0.5 mg/mL and the plate was further incubated for another 3 h. After this period, the supernatant was removed, the MTT violet crystals formed on the bottom of each well were dissolved in DMSO (100 µL/well) and subsequently, the absorbance of the color complex was read at 570 nm using a multi-well plate reader. Compounds were dissolved in dimethyl sulfoxide (DMSO) and the final solvent concentrations never exceeded 0.5% (v/v). The control wells included treated cells with 0.5% (v/v) DMSO and the positive control. Measurements were performed in triplicate, and each experiment was repeated three times. […] Nonlinear curves fitting the experimental data were carried out for each compound.

[3] = tested on: HeLa, HT-29 and MCF-7 human tumor cell lines; assay: Antiproliferative activity over the three human tumor cell lines (MTT); format: cell-based; conditions: Homo sapiens, read-out: Cytotoxicity range (range of antiproliferative IC50 values)
Experimental: as §1
The antiproliferative activity of the compounds against three human tumor cell lines of different origins (i.e., HeLa cervix epithelioid carcinoma, HT-29 colon adenocarcinoma and MCF-7 breast adenocarcinoma) was evaluated by the MTT method. […] This high success rate is the result of a combination of favorable scaffolds and substituents, and it is similar to those of previous reports on related series. […] We have previously observed the same trend for related compounds acting at the colchicine site of tubulin [10, 23]. For this pyridine series, we observed a different potency trend when we compare the 4-amino-3-pyridine and the 3-amino-4-pyridine derivatives. […] This different behavior is probably a reflection of their different shape, combined with the different geometries imposed by different bridges. We have previously shown that the potency ordering isocombretastatins similar to oximes higher than benzophenones could be explained by the higher conjugation of the ketones with the aromatic rings, which imposes a more planar disposition than those required for high affinity colchicine site binding. For the 3-amino-4-pyridine series, more planar structures are required in order to avoid the bumping of the amino substituents with tubulin out the plane of the aromatic ring, an effect which we have previously shown to impact the potency of 3-substituted indolecombretastatins and dimethylaminophenyl phenstatins. This different geometrical disposition of the amino substituents, and the different adaptability of their corresponding pockets in the two series, can also account for the preference of bulkier substituents at position 3, such as the pyrrolidine rather than the smaller dimethylamino. […] The opposite is observed for the 4-dimethylaminophenyl phenstatins 1a and 1b. […] The remarkable levels of solubility achieved for the quaternary ammonium salts came unfortunately at the expenses of biological activity.
The effect of the different compounds on the proliferation of human cell lines was determined by using the MTT (3-[4,5-dimethylthiazol-2-yl]-2,5-diphenyltetrazolium bromide) reagent (MTT Thiazolyl Blue Tetrazolium Bromide, Sigma-Aldrich, St. Louis, MO, USA) dissolved in PBS 5 mg/mL. Cell viability was evaluated seeding 100 µL of cells in exponential growth phase with appropriate cell line concentration (1.5 × 10^4 HeLa and MCF-7 cells/mL and 3 × 10^4 HT-29 cells/mL) in complete medium in 96-well plates at 37 °C and 5% CO2. After 24 h incubation to allow cells to attach to the plates the ligands were added at different concentrations from 10^−5 to 10^−9 M. The effect on the proliferation was evaluated 72 h post-treatment by adding the MTT reagent (10 µL/well) to a final concentration of 0.5 mg/mL and the plate was further incubated for another 3 h. […]

[4] = tested on: MCF-7 breast adenocarcinoma; assay: MTT cell antiproliferative assay, MCF-7; format: cell-based; conditions: Homo sapiens, MCF7, 72 h
Experimental: as §1, §2, §3

[5] = tested on: Bovine brain microtubule protein (MTP); assay: Tubulin polymerization inhibition assay (turbidimetry); format: biochemical; conditions: 1.5 mg/mL MTP; IC50 calculated only if more than 50% inhibition at 20 µM; read-out: TPI IC50
Experimental: Bovine brain microtubule protein (MTP) was isolated as previously described. Briefly, it was purified according to the modified Shelanski method by two cycles of temperature-dependent assembly/disassembly.
Tubulin polymerization was monitored using a Helios α spectrophotometer by measuring the increase in turbidity at 450 nm, caused by a shift from 4 °C to 37 °C, which allows the in vitro MTP self-disassembly and assembly respectively. […] Firstly, ligands at 20 µM concentration, were incubated with 1.5 mg/mL MTP at 20 °C for 30 min and subsequently cooled on ice for 10 min. Then, the experiment starts at 4 °C to establish the initial baseline. The assembly process was initiated by shifting of the temperature to 37 °C and the turbidity produced can be measured by an absorbance increase. After reaching a stable plateau, the temperature was switched back to 4 °C to return to the initial absorption values. The difference in amplitude between the stable plateau and the initial baseline of the curves was taken as the degree of tubulin polymerization for each experiment. […] All the measurements were carried out in at least two independent experiments using MTP from different isolation.

[6] = tested on: HT-29 colon adenocarcinoma; assay: MTT cell antiproliferative assay, HT-29 (without or with verapamil); format: cell-based, human; conditions: for IC50: Homo sapiens, HT-29, MTT, 72 h
Experimental: as §1
As observed in Table 1, there are no significant changes in the IC50 values for most compounds, except for combretastatins 8a and 8i.
Acquired resistance to antitumor drugs is one of the more important problems of chemotherapy, also affecting tubulin-targeting drugs. In order to ascertain the impact of multidrug resistance phenotypes on the action of the compounds, we have measured the cell proliferation inhibitory activity of HT-29 cells in the presence of verapamil, a known P-glycoprotein 1/multidrug resistance protein 1 (MDR1) inhibitor at a concentration of 10 µM, not affecting cell proliferation. […] Except for the combretastatin analogues 8a and 8i, the affected drugs are all pyridine drugs.
as §2, §3

[7] = phosphate buffer, pH 7, aqueous buffer
[8] = range over the cell lines, Table S1

solubility at 48 h [1, 7] [µg/mL] | IC50 [2] [nM] | IC50 [4] [nM] | IC50 [5] [nM] | IC50 [6] [nM] | improvement of HT-29 IC50 after verapamil treatment ([6]; 10 µM verapamil) [fold] | Compound | IC50 [3, 8] [nM] | solubility at 48 h ([1]; aqueous buffer) [µg/mL] | IC50 [3] [nM] | IC50 ([3]; range over the cell lines, Table S1, heading: Cytotoxicity range) [nM]
10.5 (≈ 33.2 µM) | > 1000 | > 1000 | > 20000 | – | – | COc1cc(C(=O)c2ccc(N(C)C)nc2)cc(OC)c1OC [Compound 1b, (6-(Dimethylamino)pyridin-3-yl)(3,4,5-trimethoxyphenyl)methanone] | > 1000 | – | – | –
– | 373 | 277 | > 20000 | 320 | – | COc1ccc(C(=NO)c2ccc(N(C)C)cc2)c(OC)c1OC [Compound 2d, (4-(Dimethylamino)phenyl)(2,3,4-trimethoxyphenyl)methanone oxime] | – | – | – | –
153 (≈ 463 µM) | > 1000 | > 1000 | > 20000 | – | – | COc1cc(C(=NO)c2cccc(N(C)C)c2)cc(OC)c1OC [Compound 2f, (3-(Dimethylamino)phenyl)(3,4,5-trimethoxyphenyl)methanone oxime] | – | – | – | –
4400 | > 1000 | > 1000 | > 20000 | – | – | COc1ccc(C(=O)c2ccc([N+](C)(C)C)cc2)c(OC)c1OC.[I-] [Compound 5d, N,N,N-Trimethyl-4-(2,3,4-trimethoxybenzoyl)benzenaminium iodide] | > 1000 | – | – | –
> 5000 | > 1000 | > 1000 | > 20000 | – | – | COc1ccc(OC)c(C(=O)c2ccc([N+](C)(C)C)cc2)c1.[I-] [Compound 5e, 4-(2,5-Dimethoxybenzoyl)-N,N,N-trimethylbenzenaminium iodide] | > 1000 | – | – | –
1000 | > 1000 | > 1000 | > 20000 | – | – | C=C(c1ccc([N+](C)(C)C)cc1)c1ccc(OC)c(OC)c1OC.[I-] [Compound 7d, N,N,N-Trimethyl-4-(1-(2,3,4-trimethoxyphenyl)vinyl)benzenaminium iodide] | – | – | – | > 1000
65 (≈ 191 µM) | > 1000 | > 1000 | > 20000 | – | – | COc1cc(C=Cc2ccnc(N3CCCC3)c2)cc(OC)c1OC [Compound 8h, 2-(Pyrrolidin-1-yl)-4-(3,4,5-trimethoxystyryl)pyridine] | > 1000 | – | – | –
– | 243 | 140 | – | 430 | > 2 | COc1cc(C=Cc2ccc(N3CCCC3)cc2)cc(OC)c1OC [Compound 8i, 1-(4-(3,4,5-Trimethoxystyryl)phenyl)pyrrolidine] | – | – | – | –
679 | > 1000 | > 1000 | > 20000 | – | – | COc1cc(C=Cc2ccc([N+](C)(C)C)nc2)cc(OC)c1OC.[I-] [Compound 9b, N,N,N-trimethyl-5-(3,4,5-trimethoxystyryl)pyridin-2-aminium iodide] | – | – | – | –

Compound | solubility at 48 h [1, 7] [µg/mL] | IC50 [2] [nM] | IC50 [4] [nM] | IC50 [5] [nM] | IC50 [6] [nM] | improvement of HT-29 IC50 after verapamil treatment ([6]; 10 µM verapamil) [fold] | IC50 [3, 8] [nM] | solubility at 48 h ([1]; aqueous buffer) [µg/mL] | IC50 [3] [nM] | IC50 ([3]; range over the cell lines, Table S1, heading: Cytotoxicity range) [nM]
C=C(c1ccc(N2CCCC2)nc1)c1cc(OC)c(OC)c(OC)c1 [Compound 3c, 2-(Pyrrolidin-1-yl)-5-(1-(3,4,5-trimethoxyphenyl)vinyl)pyridine] | – | 523 | – | > 20000 | 383 | – | 140 to 523 | – | – | –
C=C(c1cccc(N(C)C)c1)c1cc(OC)c(OC)c(OC)c1 [Compound 3f, N,N-Dimethyl-3-(1-(3,4,5-trimethoxyphenyl)vinyl)aniline] | – | > 1000 | > 1000 | > 20000 | – | – | > 1000 | 21 (≈ 67 µM) | – | –
COc1cc(C(=NO)c2ccc([N+](C)(C)C)cc2)cc(OC)c1OC.[I-] [Compound 6a, 4-((Hydroxyimino)(3,4,5-trimethoxyphenyl)methyl)-N,N,N-trimethylbenzenaminium iodide] | – | > 1000 | > 1000 | > 20000 | – | – | – | 1500 | – | –
C=C(c1ccc([N+](C)(C)C)cc1)c1cc(OC)c(OC)c(OC)c1.[I-] [Compound 7a, N,N,N-trimethyl-4-(1-(3,4,5-trimethoxyphenyl)vinyl)benzenaminium iodide] | – | > 1000 | > 1000 | > 20000 | – | – | – | 2500 | > 1000 | –
